Results from patent publication US20080004345A1, “Novel Water-Soluble Fullerene, Process for Producing the Same and Active Oxygen Generator Containing the Fullerene” (priority 2004, published 2008).

How the values were obtained:
[1] = Molecular weight of aggregate by high performance liquid chromatography (TSKgel G3000PWXL); format: physicochemical; conditions: HPLC, 50 mM phosphate buffer pH 6.9 with 0.3 M sodium chloride (20% acetonitrile for Example 1), PEG molecular weight markers
Protocol: Measurement of molecular weight of a fraction obtained by extracting the reaction liquid with equivalent amount of distilled water in Example 1 and a fraction after passing the aqueous layer through the cation exchange resin column was carried out using high performance liquid chromatography system 8020 (Tosoh Co., Ltd.) with TSKgel G3000PWXL (Tosoh Co., Ltd.). 50 mM phosphate buffer (pH 6.9) containing 20% acetonitrile and 0.3 M sodium chloride was used as mobile phase with a flow rate of mobile phase of 0.5 mL/min and the detection was performed at ultra-violet absorption of fullerene. Polyethylene glycols having known molecular weight (molecular weight 94,000 and 5,000) were used as molecular weight markers and the retention time was shown in FIG. 1.
As a comparative control, PEG having a methyl group at one end and an aminopropyl group at the other end and having a molecular weight 5000 was used, and the measurement of molecular weight of a fullerene-water-soluble polymer conjugate synthesized in a molar ratio of 1:10 following a method described in Example 1 of JP-A-09-235235 was carried out. 50 mM phosphate buffer (pH 6.9) containing 0.3 M sodium chloride was used as mobile phase with a flow rate of mobile phase of 1 mL/min and the detection was performed at ultra-violet absorption of fullerene. […]

[2] = Particle size measurement by light scattering method; format: physicochemical; conditions: in distilled water, 1 mg/mL and 100 μg/mL
Protocol: Particle size measurement by light scattering method was performed on the water-soluble fullerene of the present invention. The water-soluble fullerene which was synthesized with Example 1 was dissolved in distilled water so that the final concentration might be 1 mg/mL and 100 μg/mL. This solution was measured with light scattering measuring apparatus DLS-7000 (Otsuka Electronics Co., Ltd.).

[3] = system: mouse colon cancer Colon26; assay: In vivo anticancer activity by light irradiation in cancer bearing mice
Protocol: Administration routes were changed and anticancer activity in vivo by light irradiation was compared. Cancer bearing mice were prepared by removing a tumor block which had been passaged from mouse colon cancer Colon26 cells (provided by Cancer Chemotherapy Center of Cancer Research Society) by subcutaneous transplantation of BALB/c-nn (female, Charles River-Laboratories Japan, Inc.) and transplanting a strip piece onto the back subcutis of CDF1 mouse (female, Charles River Laboratories Japan, Inc.). The cancer bearing mice were used in the experiment in five days after transplantation in which cancer having a diameter of around 5 mm was formed in subcutis. […]
Cancer bearing mice to which water-soluble fullerene was not administered and which were not irradiated with light were used as a control group and the size of the tumor of the subcutaneous region was measured for each mouse with time. The cancer size was measured by actually measuring the major axis and the minor axis of the cancer with a slide caliper and calculated using a calculation formula reported by Winn (Natl. Cancer Inst Monogr., Vol. 2, p 113-138 (1960)).

[4] = Amount of active oxygen generated by light irradiation, cytochrome method; conditions: 200 μM solution mixed with cytochrome c in HBSS, light 220-800 nm, 30° C., 20 minutes
Protocol: The amount of generated active oxygen (superoxide anion, O2^−) was measured by cytochrome method. 200 μL of a solution in which cytochrome c (Nacalai Tesque Corporation) was dissolved in a Hanks' balanced salt solution (HBSS, pH 7.4, Lifetech Oriental Company) so that the final concentration might be 50 μM and 200 μL of a solution in which fullerene linked to one molecule of PEG (molecular weight 12000) prepared in Example 2 was dissolved in HBSS so that the final concentration might be 200 μM were mixed. This mixed solution was irradiated with light of various wavelengths (220-800 nm) with spectrophotofluorometer F-2000 (Hitachi, Ltd.) at 30° C. for 20 minutes. After irradiation, absorbance of the solution at 550 nm was measured with spectrophotometer DU-650 (Beckmann Company). The amount of generated O2— per minute was shown in FIG. 4 assuming a solution under light shielding condition at 30° C. for 20 minutes as control.

[5] = system: RLmale 1 cells; assay: In vitro cancer cell growth inhibitory activity by light irradiation; format: cell-based; conditions: 62.5-250 μM solutions, light irradiated for 40 minutes, cultured three days
Protocol: Cancer cell growth inhibitory activity in in vitro by light irradiation was measured. RLmale 1 cells (provided by Kyoto Pasteur Laboratory) were used as a cancer cell and these cells were incubated under culture conditions of 5% CO2, 95% atmosphere, at 37° C. in RPMI 1640 culture medium (Sigma Company, containing 10% fetal bovine serum) with 100 mm dish till they became 80% confluent. The water-soluble fullerene of Example 2 was dissolved in a culture medium of the same composition as used for culture of cancer cells under light shielding condition and after adjusted to the concentration of 250 μM, it was sterilized and filtered. The sterilized solution of 250 μM was diluted with a culture medium sequentially to prepare solutions of 125 μM and 62.5 μM. […] After the culturing for three days, 10 μL each of viable count measurement reagent SF (Nacalai Tesque Corporation) was added into each well, and after kept warm in an incubator for 80 minutes, absorbance at 450 nm was measured with a microplate leader VERSAmax (Japanese Molecular Device Company). The survival rate of cancer cells was determined assuming that the absorbance at 450 nm for the case in which compound of Example 2 was not added was 100% survival rate and the results are shown in FIG. 5.

[6] = Amount of active oxygen generated by ultrasonic irradiation, viable count measurement reagent SF; conditions: 200 μM solution, 1 MHz, duty cycle 30%, five minutes, output 1.5, 2.0, 2.5 and 3.0 W/cm^2
Protocol: The amount of active oxygen (superoxide anion, O2^−) generated by ultrasonic irradiation was measured using viable count measurement reagent SF with reference to a report by Ukeda (DOJIN NEWS, No. 96, p 1-6, 2000). A solution in which water-soluble fullerene of Example 2 was dissolved in a Hanks' balanced salt solution so that it might be 200 μM was dispensed to 35 mm dish by 750 μL. This was mixed with 600 μL of a Hanks' balanced salt solution and 150 μL of viable count measurement reagent SF and, while stirred, irradiated with ultrasonic waves of various output (1.5, 2.0, 2.5 and 3.0 W/cm^2) with a frequency of 1 MHz, output mode (Duty cycle) 30% for five minutes from the liquid surface using an sonodynamic therapy device US-700 (Ito Ultrashort Wave Company). After irradiation, absorbance of the solution at 450 nm was measured with a spectrophotometer DU-650. The absorbance of the solution irradiated with ultrasonic wave without adding a compound at 450 nm was assumed as control and the amount of generated O2 per minute was shown in FIG. 7.

| Substance | molecular weight of aggregate formed by self assembly [1] | particle diameter of aggregate [2] | increase of tumor volume ([3]; Colon26 bearing CDF1 mice, administration combined with light irradiation of tumor site, three consecutive days) | order of tumor suppression effect by administration route ([3]; subcutaneous or intra-tumor 6 mg/mL 100 μL, light 5 minutes after, intravenous 60 mg/mL 100 μL, light 24 hours after) | generation of O2− on light irradiation [4] | wavelength range of particularly significant O2− generation [4] | survival rate of cancer cells [5] | amount of active oxygen on ultrasonic irradiation [6] |
| --- | --- | --- | --- | --- | --- | --- | --- | --- |
| Fullerene Linked to One Molecule of PEG (Molecular Weight 5000) [Example 1] | about 100,000 | about 50 nm | Increase of a tumor volume was suppressed | subcutaneous administration<intra-tumor administration<intravenous administration |  |  |  |  |
| Fullerene Linked to One Molecule of PEG (Molecular Weight 12000) [Example 2] |  | about 100 nm |  |  | generation of O2— was observed in a wide wavelength range from ultraviolet to visible light areas | 260 to 450 nm | significantly decreases the survival rate of cancer cells as the addition amount thereof increases | the amount of active oxygen increases according to the output increases |
